Data as given in US20250188088A1, “COMPOUND AND USE THEREOF” (ONQUALITY PHARMACEUTICALS CHINA LTD., priority 2022, published 2025).
Converted amounts (≈) assume the structure as drawn. Where two headings read alike, the source gives them in different places.

Tests used:
[1] = test system: skin contact delayed-type hypersensitivity; assay: Skin contact delayed-type hypersensitivity (DNFB) response test, ear swelling, topical ointment; assay type: in vivo; settings: topical to ears, DNFB DTH, Balb/c mice, compared to blank ointment
Method in brief: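 Balb/c mice sensitized with DNFB on the back on Days 0–1, then challenged on Day 5 with 0.2% DNFB on both ears. Ear thickness measured by micrometer 24–72 h after challenge. Compound ointment applied topically over Days −1–7 or Days 4–7; effect is the reduction in ear swelling versus blank ointment, with ≥20% deemed effective.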

[2] = test system: rash caused by small molecule EGFR inhibitors; assay: Treatment of rash caused by small molecule EGFR inhibitors, topical ointment, rat model; assay type: in vivo, SD rats
Experimental: An Experiment to Verify the Treatment of Rash Caused by Small Molecule EGFR Inhibitors with Topical Administration of Compounds of the Present Application on a Rat Animal Model After the SD rats were fed and adapted for one week (about 200 g), the rats were divided into 10 rats per group. The hair on the back of rats was gently removed with an electric razor one day before the experiment, and then an intragastric administration test was carried out. EGFR inhibitors were dissolved in a sterile aqueous solution, and diluted with PBS buffer; the amount of each gavage was not more than 2 mL, and the dosage was shown in Table 3. […] The experiments were divided into the administration group with the compound of the present application and the control group. During the treatment experiment, EGFR inhibitors were intragastrically administered continuously every day. After the gavage, the administration group applied the compound ointment of the present application on the back (about 3 cm*3 cm) of rats, and the control group applied blank matrix ointment on the back (about 3 cm*3 cm); after application, the rats were fixed with a fixed cyclinder for about 4 hours, and then the rats were released, with the residual drug at the application site wiped off with clean water, and put back into the cage. The frequency of intragastric administration of EGFR inhibitors is shown in Table 3, but the compounds of the present application and blank ointment are applied only once a day. […] Table 3 lists the animal experiment combinations of various small molecule EGFR inhibitors and the compound ointment of the present application, as well as the corresponding experiment results (wherein, the value in the control rate column=the number of rats whose rash is milder in the administration group than that in the control group/the total number of rats in the administration group×100%).

[3] = Log D measurement (n-octanol/PBS shake, LC-MS/MS); assay type: physicochemical; settings: pH 7.4, read-out: LogD7.4 (Oct/buff)
Experimental: Two replicates of test compounds (DMSO stock solution 10 mM, 2 μL/well) and QCs (DMSO 10 mM, 2 μL/well) were transferred from the storage tube to a 96-well cluster tube. Add buffer-saturated n-octanol ([…]) and n-octanol-saturated PBS (149 μL/well) to each well; vortex mix the cluster tube for 1 minute, mix by shaking on a plate shaker at 880 rpm for one hour, and then centrifuge at 4000 rpm for 10 minutes. Remove the cover pad, accurately measure a certain amount of n-octanol layer samples (4 μL/well) into a 96-well plate containing n-octanol internal standard diluent (796 μL/well); accurately measure a certain amount of buffer salt layer samples (30 μL/well) into a 96-well plate containing buffer internal standard diluent (570 μL/well); the dilution factor of the sample can be adjusted according to different properties of the sample. Samples were analyzed using a triple quadrupole mass spectrometer. The processed sample solution was analyzed by the fast isocratic elution and small column retention method, the concentration correction was carried out by dilution factor and internal standard, and the ratio of the corrected peak area was used to calculate the final result (Log D/Log P value).

[4] = Thermodynamic solubility assay (PBS pH 6.5; isopropyl myristate); assay type: physicochemical; settings: thermodynamic from solid
Experimental: Thermodynamic Solubility Assay
Weigh not less than 2 mg of the sample powder into a Whatman Mini-UniPrep vial. If it is required to test the thermodynamic solubility of samples in multiple buffers, a separate vial is needed for each test; add 450 μL of buffer to each Whatman Mini-UniPrep vial, respectively; after that, install the piston cap of Whatman Mini-UniPrep and press it above the liquid level, so that the filter is in contact with the buffer during shaking; shake the solubility sample by vortexing for 1 minute.
Inject 3 UV standard solutions from low to high concentrations into the HPLC, then inject the diluent and supernatant of the test compound, with two replicates of test sample; and integrate the UV peaks. Simulate a standard curve and calculate the thermodynamic solubility of the sample.

## C[C@@H]1CCN(C(=O)CC#N)C[C@@H]1N(C)c1ncnc2c1ccn2C(=O)N(C)CCOC(=O)C1CCCO1 (stereo partly shown) [Compound A7]
[1]; ointment 0.05 wt%
  Reduction Rate of Ear Swelling: 18%
[1]; ointment 0.1 wt%
  Reduction Rate of Ear Swelling: 22%
[1]; ointment 1.0 wt%
  Reduction Rate of Ear Swelling: 27%
[1]; ointment 5.0 wt%
  Reduction Rate of Ear Swelling: 35%
[1]; ointment 10.0 wt%
  Reduction Rate of Ear Swelling: 42%
[2]; Afatinib 40 mg/kg once a day, 6 dosing modelling days, ointment 0.1 wt% once a day
  Control Rate: 20%
[2]; Afatinib 40 mg/kg once a day, 6 dosing modelling days, ointment 3.0 wt% once a day
  Control Rate: 60%
[2]; BPI-7711 60 mg/kg once a day, 6 dosing modelling days, ointment 3.0 wt% once a day
  Control Rate: 70%
[2]; EAI045 80 mg/kg once a day, 8 dosing modelling days, ointment 1.0 wt% once a day
  Control Rate: 50%
[2]; EAI045 80 mg/kg once a day, 8 dosing modelling days, ointment 5.0 wt% once a day
  Control Rate: 80%
[2]; Larotinib 20 mg/kg once a day, 6 dosing modelling days, ointment 3.0 wt% once a day
  Control Rate: 6%
[2]; Osimertinib 60 mg/kg twice a day, 7 dosing modelling days, ointment 3.0 wt% once a day
  Control Rate: 10%
[2]; Osimertinib 60 mg/kg twice a day, 7 dosing modelling days, ointment 10.0 wt% once a day
  Control Rate: 70%
[3]
  logD: 0.63
[4]; aqueous buffer, PBS buffer pH 6.5, about 25° C., read-out: Thermodynamic Solubility pH = 6.5
  solubility thermodynamic at 24 h: 4390 µg/mL (≈ 8.58 mM)
[4]; oil or lipid, isopropyl myristate as vehicle, about 25° C., read-out: Thermodynamic Solubility in Isopropyl Myristate
  solubility thermodynamic at 24 h: 375 µg/mL (≈ 0.733 mM)
